Here are results for 7 molecules from PubChem BioAssay (NCI).

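Values below derive from 48-hour exposures of cells grown in 96-well plates, with endpoints linearly interpolated between the two concentrations bracketing the appropriate inhibition level. At the TGI there is no net growth.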

Among the test systems are A549 NSCLC; BT-549 breast; HOP-62 NSCLC; HS 578T breast; HT29 colon; IGROV1 ovarian; KM12 colon; MALME-3M melanoma; MDA-N; MOLT-4 leukemia; NCI/ADR-RES ovarian; OVCAR-4 ovarian; OVCAR-8 ovarian; SK-MEL-2 melanoma; SN12C renal; SNB-75 CNS; SW-620 colon; U251 CNS; UACC-257 melanoma; RPMI-8226 leukemia.
What all share (assay): inhibition of tumour cell growth, NCI panel, 48 h

As for `O=C(Nc1ccc2nc(-c3ccccc3)cn2c1)Oc1ccccc1`, the TGI with A549 NSCLC, in the experiment on BT-549 breast, with HOP-62 NSCLC, with HS 578T breast, in the experiment on HT29 colon and in the experiment on IGROV1 ovarian was above 100 µM in each case. Further, the TGI was above 100 µM with KM12 colon; above 100 µM in the experiment with MALME-3M melanoma; 41.9 µM with MDA-N; above 100 µM with MOLT-4 leukemia; above 100 µM in the experiment on NCI/ADR-RES ovarian; above 100 µM in the experiment with OVCAR-4 ovarian. Also, the TGI was above 100 µM in the experiment on OVCAR-8 ovarian; above 100 µM in the experiment with SK-MEL-2 melanoma; above 100 µM with SN12C renal; 13.1 µM in the experiment with SNB-75 CNS; above 100 µM in the experiment on SW-620 colon; above 100 µM in the experiment with U251 CNS. The molecule also showed a TGI in the experiment with UACC-257 melanoma above 100 µM.

Take `O=C1NNC(=O)C2C3c4ccccc4C(c4ccccc43)C12` (stereo not given): the TGI in the experiment on A549 NSCLC, in the experiment with BT-549 breast, in the experiment with HOP-62 NSCLC, in the experiment with HS 578T breast, in the experiment on HT29 colon and in the experiment with IGROV1 ovarian was above 100 µM in each case. The TGI with KM12 colon, in the experiment with MALME-3M melanoma, in the experiment with MDA-N, in the experiment with MOLT-4 leukemia, in the experiment on NCI/ADR-RES ovarian and in the experiment with OVCAR-4 ovarian was above 100 µM throughout. Further, the TGI in the experiment on OVCAR-8 ovarian, in the experiment on RPMI-8226 leukemia, in the experiment with SN12C renal, with SNB-75 CNS, in the experiment on SW-620 colon and with U251 CNS was above 100 µM throughout. In the experiment with UACC-257 melanoma, this molecule yielded a TGI above 100 µM.

On to `NC(N)=N/N=C/c1c(Cl)nc2sccn12`, for which the TGI was 93.8 µM in the experiment with A549 NSCLC; above 100 µM in the experiment with BT-549 breast; 66.8 µM with HOP-62 NSCLC; 84.8 µM with HS 578T breast; 31.6 µM with HT29 colon; above 100 µM in the experiment on IGROV1 ovarian. Further, the TGI with KM12 colon was 37.4 µM; in the experiment on MALME-3M melanoma it was 50.3 µM; in the experiment on MDA-N, above 100 µM; in the experiment on MOLT-4 leukemia, above 100 µM; with NCI/ADR-RES ovarian, above 100 µM; in the experiment on OVCAR-4 ovarian it was 46.4 µM. For the same molecule, the TGI in the experiment on OVCAR-8 ovarian is above 100 µM; with RPMI-8226 leukemia, 53.1 µM; with SN12C renal, above 100 µM; in the experiment on SNB-75 CNS, above 100 µM; in the experiment on SW-620 colon, 41.1 µM; in the experiment with U251 CNS, above 100 µM. In addition, the TGI with UACC-257 melanoma was found to be 49 µM.

With `CNC(=O)N1CCN(C(=O)NC)CCN(C(=O)NC)CC1`, the TGI with A549 NSCLC, in the experiment with BT-549 breast, in the experiment on HOP-62 NSCLC, in the experiment on HS 578T breast, with HT29 colon and with IGROV1 ovarian was above 100 µM in each case. The TGI in the experiment with MALME-3M melanoma, with MDA-N, with MOLT-4 leukemia, in the experiment on NCI/ADR-RES ovarian, in the experiment with OVCAR-8 ovarian and in the experiment on RPMI-8226 leukemia was above 100 µM in each case. Further, the TGI in the experiment with SK-MEL-2 melanoma, in the experiment on SN12C renal, in the experiment with SNB-75 CNS, with SW-620 colon, with U251 CNS and in the experiment on UACC-257 melanoma was above 100 µM each time.

As to `CC/C(=N/O)c1ccc(Br)s1`, the TGI with A549 NSCLC, with BT-549 breast, in the experiment on HOP-62 NSCLC, in the experiment with HS 578T breast, in the experiment on HT29 colon and in the experiment with IGROV1 ovarian was above 100 µM throughout. Moreover, the TGI with KM12 colon, in the experiment on MALME-3M melanoma, in the experiment with MDA-N, in the experiment with MOLT-4 leukemia, in the experiment with NCI/ADR-RES ovarian and in the experiment on OVCAR-4 ovarian was above 100 µM each time. The TGI in the experiment on OVCAR-8 ovarian, with SK-MEL-2 melanoma, with SN12C renal, with SNB-75 CNS, with SW-620 colon and with U251 CNS was above 100 µM in each case. In the experiment on UACC-257 melanoma, this molecule returned a TGI above 100 µM.

`CN(C)CC(CN(C)C)c1ccccn1`: the TGI in the experiment on A549 NSCLC, with BT-549 breast, with HOP-62 NSCLC, in the experiment on HS 578T breast, in the experiment on HT29 colon and in the experiment with IGROV1 ovarian was above 100 µM throughout. The TGI with KM12 colon, with MALME-3M melanoma, in the experiment on MDA-N, in the experiment with MOLT-4 leukemia, in the experiment with NCI/ADR-RES ovarian and in the experiment with OVCAR-4 ovarian was above 100 µM each time. Moreover, the TGI in the experiment with OVCAR-8 ovarian, in the experiment with RPMI-8226 leukemia, with SK-MEL-2 melanoma, in the experiment on SN12C renal, in the experiment on SW-620 colon and in the experiment with U251 CNS was above 100 µM throughout. In addition, the TGI in the experiment with UACC-257 melanoma is above 100 µM.

As for `CCN(CC)Cc1cc(Nc2ccnc3ccc4c(nnn4C)c23)ccc1O`, the TGI in the experiment with A549 NSCLC was 27 µM; in the experiment with BT-549 breast it was 37.1 µM; with HOP-62 NSCLC it was 19 µM; in the experiment with HS 578T breast it was 42.1 µM; in the experiment with HT29 colon it was above 100 µM; in the experiment with IGROV1 ovarian, 80.3 µM. Besides, the TGI was 39.7 µM with KM12 colon; 42.1 µM with MALME-3M melanoma; 27 µM in the experiment on MDA-N; above 100 µM in the experiment on MOLT-4 leukemia; 52.7 µM in the experiment on NCI/ADR-RES ovarian; 32.6 µM in the experiment on OVCAR-4 ovarian. In addition, the TGI with OVCAR-8 ovarian is 41.9 µM; with SK-MEL-2 melanoma it was 31.8 µM; in the experiment with SN12C renal, 31.8 µM; in the experiment with SNB-75 CNS it was 19.9 µM; with UACC-257 melanoma it was 28.8 µM.
